The values that follow are results of earlier work, collected in patent US7803402B2, “Pharmaceutical preparations” (priority 2002, dated 2010).

The conditions of data set [1]: in vivo.
For data set [2] the following is noted: cefixime in the circulation.

`C=CC1=C(C(=O)O)N2C(=O)[C@@H](NC(=O)/C(=N\OCC(=O)O)c3csc(N)n3)[C@H]2SC1` [Cefixime]: for the setting “dehydrated alcohol”, the “solubility in dehydrated alcohol” value is recorded as “sparingly soluble”. For the same compound, for the setting “ethyl acetate”, the “solubility in ethyl acetate” value is given as “practically insoluble”. Besides, for the setting “methyl alcohol”, the “solubility in methyl alcohol” value is “freely soluble”. Also, the solubility in water result (water) is “slightly soluble”. For the same compound, in data set [1], the “eliminated by nonrenal mechanisms” value is listed as “Up to 60%”, the placental transfer result is on record as “crosses the placenta” and the removal by dialysis entry is on record as “not substantially removed”. The “bound to plasma proteins” value in data set [2] is listed as “About 65%”.
